Source: US20260184706A1, “PHENYLSULFONAMIDE DERIVATIVES, PREPARATION METHOD THEREFOR, AND PHARMACEUTICAL COMPOSITION FOR PREVENTION OR TREATMENT OF CANCER CONTAINING SAME AS ACTIVE INGREDIENT” (Korea Research Institute of Chemical Technology, priority 2022, published 2026)

How the values were obtained:
Assay type in all cases: biochemical
[1] = molecular target: recombinant human HRI protein (Homo sapiens, UniProt Q9BQI3); experiment: eIF2-alpha kinase heme-regulated inhibitor (HRI) inhibitory capacity, 33P-ATP filter assay; conditions: 45 uM [gamma-33P-ATP], 40 minutes, room temperature
Protocol: <Experimental Example 3> Evaluation of eIF2-Alpha Kinase Heme-Regulated Inhibitor (HRI) Inhibitory Capacity
A recombinant human HRI protein was mixed with the compound in a reaction solution (50 mM Tris/HCl pH 7.5, 0.04 mM EDTA, 300 uM RSRSRSRSRSRSRSR, 10 mM Magnesium acetate, 45 uM [gamma-33P-ATP]) and reacted at room temperature for 40 minutes. Then, the reaction was terminated by adding phosphoric acid (0.5%) to the reaction mixture, and […] of the reaction solution was dropped onto a P30 filter. The filter was washed four times in a 0.425% phosphoric acid solution for 4 minutes, then […] washed once more in methanol, dried, and the HRI activity was measured by scintillation counting. […] The compound was diluted by 1/3 from the highest concentration of 1 uM and treated with a total of 9 concentrations to evaluate the degree of inhibition.

[2] = molecular target: recombinant human PKR protein (Homo sapiens, UniProt P19525); experiment: Protein kinase R (PKR) inhibitory capacity, 33P-ATP filter assay; conditions: 15 uM [gamma-33P-ATP], 40 minutes, room temperature
Protocol: <Experimental Example 4> Evaluation of Protein Kinase R (PKR) Inhibitory Capacity
A recombinant human PKR protein was mixed with the compound in a reaction solution (8 mM MOPS pH 7.0, 0.2 mM EDTA, 20 uM RSRSRSRSRSRSRSR, 10 mM Magnesium acetate, 15 uM [gamma-33P-ATP]) and reacted at room temperature for 40 minutes. Then, the reaction was terminated by adding phosphoric acid (0.5%) to the reaction mixture, and 10 ul of the reaction solution was dropped onto a P30 filter. The filter was washed four times in a 0.425% phosphoric acid solution for 4 minutes, then washed once more in methanol, dried, and the PKR activity was measured by scintillation counting. […] The compound was diluted by 1/3 from the highest concentration of 1 uM and treated with a total of 9 concentrations to evaluate the degree of inhibition.

[3] = molecular target: recombinant human GCN2 protein (Homo sapiens, UniProt Q9P2K8); experiment: General control nonderepressible 2 (GCN2) inhibitory capacity, 33P-ATP filter assay; conditions: recombinant human GCN2, 70 uM [gamma-33P-ATP], 40 minutes, room temperature
[4] = molecular target: T1, recombinant human PERK protein (Homo sapiens, UniProt Q9NZJ5); experiment: PKR-like endoplasmic reticulum kinase (PERK) inhibitory capacity, 33P-ATP filter assay; conditions: 15 uM [gamma-33P-ATP], 40 minutes, room temperature
T1 sequence (Q9NZJ5 30-1116): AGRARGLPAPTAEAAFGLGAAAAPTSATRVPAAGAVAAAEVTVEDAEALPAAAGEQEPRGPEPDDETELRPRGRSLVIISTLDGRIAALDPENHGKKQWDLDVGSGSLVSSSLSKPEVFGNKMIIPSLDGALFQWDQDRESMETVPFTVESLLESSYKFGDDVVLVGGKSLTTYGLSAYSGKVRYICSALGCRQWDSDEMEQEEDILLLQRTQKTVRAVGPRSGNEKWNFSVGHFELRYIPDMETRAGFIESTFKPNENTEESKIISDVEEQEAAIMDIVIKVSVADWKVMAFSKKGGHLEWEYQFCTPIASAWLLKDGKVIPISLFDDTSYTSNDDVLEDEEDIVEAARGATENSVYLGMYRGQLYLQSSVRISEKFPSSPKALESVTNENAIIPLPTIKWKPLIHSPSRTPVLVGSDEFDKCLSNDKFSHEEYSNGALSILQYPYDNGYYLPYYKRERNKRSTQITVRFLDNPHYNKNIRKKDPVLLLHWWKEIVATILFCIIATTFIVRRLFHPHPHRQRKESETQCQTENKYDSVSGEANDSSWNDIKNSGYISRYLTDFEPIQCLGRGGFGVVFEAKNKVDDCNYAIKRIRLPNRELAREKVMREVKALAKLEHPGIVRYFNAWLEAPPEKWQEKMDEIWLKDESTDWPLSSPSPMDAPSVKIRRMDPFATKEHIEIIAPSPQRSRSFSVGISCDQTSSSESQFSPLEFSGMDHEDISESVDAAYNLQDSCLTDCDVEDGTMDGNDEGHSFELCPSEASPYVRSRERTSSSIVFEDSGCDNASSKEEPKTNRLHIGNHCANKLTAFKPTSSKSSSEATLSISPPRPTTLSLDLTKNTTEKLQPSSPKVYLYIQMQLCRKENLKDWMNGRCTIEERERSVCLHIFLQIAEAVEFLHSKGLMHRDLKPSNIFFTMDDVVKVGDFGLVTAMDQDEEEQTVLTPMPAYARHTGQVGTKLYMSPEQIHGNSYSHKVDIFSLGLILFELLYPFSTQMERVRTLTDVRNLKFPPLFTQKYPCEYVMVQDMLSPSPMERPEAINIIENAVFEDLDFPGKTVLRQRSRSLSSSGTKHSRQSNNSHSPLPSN

Sequence of recombinant human HRI protein (Q9BQI3 whole entry): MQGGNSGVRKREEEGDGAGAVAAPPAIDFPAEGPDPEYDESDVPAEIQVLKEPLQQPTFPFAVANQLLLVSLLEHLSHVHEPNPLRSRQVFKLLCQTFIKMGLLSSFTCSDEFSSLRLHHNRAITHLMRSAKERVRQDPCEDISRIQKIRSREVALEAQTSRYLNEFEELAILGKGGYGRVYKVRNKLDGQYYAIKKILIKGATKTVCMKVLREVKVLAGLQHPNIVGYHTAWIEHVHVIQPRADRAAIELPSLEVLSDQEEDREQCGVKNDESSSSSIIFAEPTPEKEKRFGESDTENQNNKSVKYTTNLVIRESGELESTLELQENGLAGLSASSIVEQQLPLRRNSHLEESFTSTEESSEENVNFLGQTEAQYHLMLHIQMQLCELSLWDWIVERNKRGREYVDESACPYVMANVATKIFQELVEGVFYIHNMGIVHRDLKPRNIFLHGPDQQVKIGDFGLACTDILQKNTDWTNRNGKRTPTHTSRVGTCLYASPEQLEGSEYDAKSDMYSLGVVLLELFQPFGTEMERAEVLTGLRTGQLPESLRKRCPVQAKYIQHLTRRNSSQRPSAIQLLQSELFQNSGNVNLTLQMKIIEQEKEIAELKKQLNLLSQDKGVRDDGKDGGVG
Sequence of recombinant human PKR protein (P19525 whole entry): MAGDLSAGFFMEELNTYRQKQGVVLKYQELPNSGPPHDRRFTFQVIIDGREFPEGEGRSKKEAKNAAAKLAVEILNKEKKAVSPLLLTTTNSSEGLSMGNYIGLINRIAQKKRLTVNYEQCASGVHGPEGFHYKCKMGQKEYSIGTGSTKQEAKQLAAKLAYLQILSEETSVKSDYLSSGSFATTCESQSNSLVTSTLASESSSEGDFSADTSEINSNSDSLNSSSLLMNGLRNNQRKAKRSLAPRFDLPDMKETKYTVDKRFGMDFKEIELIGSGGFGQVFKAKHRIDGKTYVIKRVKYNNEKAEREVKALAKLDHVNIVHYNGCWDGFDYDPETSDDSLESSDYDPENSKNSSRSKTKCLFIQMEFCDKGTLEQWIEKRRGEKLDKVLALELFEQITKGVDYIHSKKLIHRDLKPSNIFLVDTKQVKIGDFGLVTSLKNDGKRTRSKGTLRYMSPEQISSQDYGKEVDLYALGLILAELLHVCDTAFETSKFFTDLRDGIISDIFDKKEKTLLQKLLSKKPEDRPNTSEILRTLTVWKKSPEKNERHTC
Sequence of recombinant human GCN2 protein (Q9P2K8 whole entry): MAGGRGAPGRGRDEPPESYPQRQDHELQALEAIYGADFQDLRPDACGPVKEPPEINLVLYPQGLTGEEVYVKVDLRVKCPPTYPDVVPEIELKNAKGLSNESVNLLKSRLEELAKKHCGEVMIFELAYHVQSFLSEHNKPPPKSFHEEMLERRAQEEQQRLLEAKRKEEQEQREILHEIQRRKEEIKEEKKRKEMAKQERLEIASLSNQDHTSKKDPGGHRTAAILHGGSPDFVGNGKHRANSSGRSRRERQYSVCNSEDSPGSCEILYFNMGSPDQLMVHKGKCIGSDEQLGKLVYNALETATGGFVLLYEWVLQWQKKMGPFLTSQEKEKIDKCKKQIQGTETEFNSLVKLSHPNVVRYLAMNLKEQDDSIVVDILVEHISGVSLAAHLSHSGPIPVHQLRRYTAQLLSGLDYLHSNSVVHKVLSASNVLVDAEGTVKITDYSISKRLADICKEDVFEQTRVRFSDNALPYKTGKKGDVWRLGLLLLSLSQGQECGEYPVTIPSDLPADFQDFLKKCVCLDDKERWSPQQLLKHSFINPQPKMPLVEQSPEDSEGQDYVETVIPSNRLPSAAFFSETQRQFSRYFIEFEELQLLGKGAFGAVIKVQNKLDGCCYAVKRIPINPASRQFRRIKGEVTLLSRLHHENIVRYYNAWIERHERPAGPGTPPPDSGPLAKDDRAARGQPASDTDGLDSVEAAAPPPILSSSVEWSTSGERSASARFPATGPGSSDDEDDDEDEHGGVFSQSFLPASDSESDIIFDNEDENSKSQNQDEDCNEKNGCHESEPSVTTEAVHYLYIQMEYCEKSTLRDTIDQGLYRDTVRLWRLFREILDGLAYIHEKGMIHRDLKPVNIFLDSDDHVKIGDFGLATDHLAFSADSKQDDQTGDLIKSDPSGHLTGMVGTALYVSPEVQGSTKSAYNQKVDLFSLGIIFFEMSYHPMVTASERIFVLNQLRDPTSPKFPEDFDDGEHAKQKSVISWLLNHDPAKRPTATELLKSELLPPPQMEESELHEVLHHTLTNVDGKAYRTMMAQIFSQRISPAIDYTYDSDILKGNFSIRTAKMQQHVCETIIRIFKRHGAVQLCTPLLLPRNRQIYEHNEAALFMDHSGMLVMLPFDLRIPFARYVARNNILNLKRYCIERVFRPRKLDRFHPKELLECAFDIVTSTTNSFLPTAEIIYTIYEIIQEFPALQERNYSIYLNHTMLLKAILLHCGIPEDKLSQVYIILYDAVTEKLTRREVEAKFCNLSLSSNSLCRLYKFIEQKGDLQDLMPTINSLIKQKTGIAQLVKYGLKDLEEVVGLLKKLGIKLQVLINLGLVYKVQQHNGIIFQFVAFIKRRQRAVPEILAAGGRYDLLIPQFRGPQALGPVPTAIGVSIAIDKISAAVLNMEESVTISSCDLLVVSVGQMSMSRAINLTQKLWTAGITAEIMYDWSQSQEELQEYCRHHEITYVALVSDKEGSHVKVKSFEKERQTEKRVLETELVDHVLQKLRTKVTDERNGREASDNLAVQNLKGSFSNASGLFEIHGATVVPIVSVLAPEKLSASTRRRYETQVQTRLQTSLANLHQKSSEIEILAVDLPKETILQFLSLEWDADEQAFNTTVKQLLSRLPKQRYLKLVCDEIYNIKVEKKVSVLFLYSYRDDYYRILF

IC50 [1] [nM] | IC50 [2] [nM] | IC50 [3] [nM] | IC50 [4] [nM] | Structure (SMILES)
< 100 | 300 to 1000 | < 100 | < 100 | COc1ncc(Cl)cc1S(=O)(=O)Nc1ccc(F)c(-n2cc(C(F)F)c3nc(N)ncc3c2=O)c1F [Example 22, N-(3-(2-amino-8-(difluoromethyl)-5-oxopirido[4,3-d]pyrimidin-6(5H)-yl)-2,4-difluorophenyl)-5-chloro-2-methoxypyridine-3-sulfonamide]
< 100 | > 1000 | < 100 | < 100 | Nc1ncc2c(=O)n(-c3c(F)ccc(NS(=O)(=O)c4cc(Cl)cnc4Cl)c3F)ccc2n1 [Example 27, N-(3-(2-amino-5-oxopirido[4,3-d]pyrimidin-6(5H)-yl)-2,4-difluorophenyl)-2,5-dichloropyridine-3-sulfonamide]
< 100 | 100 to 300 | < 100 | < 100 | Nc1ncc2c(=O)n(-c3c(F)ccc(NS(=O)(=O)c4cccc5ccccc45)c3F)ccc2n1 [Example 29, N-(3-(2-amino-5-oxopirido[4,3-d]pyrimidin-6(5H)-yl)-2,4-difluorophenyl)naphthalene-1-sulfonamide]
< 100 | > 1000 | < 100 | < 100 | CNc1ncc2c(=O)n(-c3c(F)ccc(NS(=O)(=O)c4cc(Cl)cnc4OC)c3F)ccc2n1 [Example 32, 5-chloro-N-(2,4-difluoro-3-(2-(methylamino)-5-oxopirido[4,3-d]pyrimidin-6(5H)-yl)phenyl)-2-methoxypyridine-3-sulfonamide]
< 100 | 300 to 1000 | 100 to 300 | < 100 | COc1ncc(Cl)cc1S(=O)(=O)Nc1ccc(F)c(-n2c(=O)c3cnc(N)nc3n(C)c2=O)c1F [Example 44, N-(3-(7-amino-1-methyl-2,4-dioxo-1,4-dihydropyrimido[4,5-d]pyrimidin-3(2H)-yl)-2,4-difluorophenyl)-5-chloro-2-methoxypyridine-3-sulfonamide]
100 to 300 | 300 to 1000 | < 100 | < 100 | COc1ncc(Br)cc1S(=O)(=O)Nc1ccc(F)c(-n2c(=O)c3cnc(N)nc3n(C)c2=O)c1F [Example 46, N-(3-(7-amino-1-methyl-2,4-dioxo-1,4-dihydropyrimido[4,5-d]pyrimidin-3(2H)-yl)-2,4-difluorophenyl)-5-bromo-2-methoxypyridine-3-sulfonamide]
